Experiment [1] addresses T1, H-2D^b (Mus musculus, UniProt P01899).
T1 sequence (P01899 25-362): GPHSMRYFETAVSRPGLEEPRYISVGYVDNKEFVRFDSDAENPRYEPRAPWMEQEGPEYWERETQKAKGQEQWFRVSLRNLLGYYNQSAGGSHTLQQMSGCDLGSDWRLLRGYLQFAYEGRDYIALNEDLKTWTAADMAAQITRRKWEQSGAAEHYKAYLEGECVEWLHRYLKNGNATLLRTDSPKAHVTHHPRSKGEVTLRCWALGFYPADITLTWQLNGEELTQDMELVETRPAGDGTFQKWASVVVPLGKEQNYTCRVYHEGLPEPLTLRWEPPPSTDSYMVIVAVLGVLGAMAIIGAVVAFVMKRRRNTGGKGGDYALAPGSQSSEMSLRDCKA
T1 sequence (P01887 21-119 partner): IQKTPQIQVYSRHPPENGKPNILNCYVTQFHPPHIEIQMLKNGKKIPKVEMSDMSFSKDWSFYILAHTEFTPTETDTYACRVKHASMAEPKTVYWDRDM
Put plainly: MHC class I stabilization assay on RMA-S cells, H-2D^b surface expression. It counts as cell-based. Particulars: for H-2D^b binder class (weak, intermediate, strong) by stabilization of MHC class I on RMA-S cells: 10 μM (Figure 1a), in words; for MHC I Stabilization Assay, fluorescence index class, H-2D^b: RMA-S cells 26 °C 4 h then 37 °C 1 h, flow cytometry. On the technique in general: In flow cytometry, cells or beads pass a laser one at a time.

Experiment [2] concerns the target T2, H-2K^b (Mus musculus, UniProt P01901).
T2 sequence (P01901 22-369): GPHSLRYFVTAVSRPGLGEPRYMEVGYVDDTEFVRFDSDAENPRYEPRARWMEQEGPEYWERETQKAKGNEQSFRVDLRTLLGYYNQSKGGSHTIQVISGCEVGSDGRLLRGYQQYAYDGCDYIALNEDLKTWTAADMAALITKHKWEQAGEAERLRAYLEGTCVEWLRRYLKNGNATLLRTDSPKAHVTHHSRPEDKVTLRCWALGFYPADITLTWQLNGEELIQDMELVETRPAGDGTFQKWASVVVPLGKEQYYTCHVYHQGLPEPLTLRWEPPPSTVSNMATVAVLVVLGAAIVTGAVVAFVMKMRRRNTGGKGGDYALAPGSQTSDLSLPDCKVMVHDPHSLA
T2 sequence (P01887 21-119 partner): T1 sequence (P01887 21-119 partner)
Put plainly: MHC class I stabilization assay on RMA-S cells, H-2K^b surface expression. The following applies: for MHC I Stabilization Assay, fluorescence index class, H-2K^b: RMA-S cells 26 °C 4 h then 37 °C 1 h, flow cytometry.
Experimental: RMA-S cells were maintained in IMDM (Life Technologies, Bleiswijk, The Netherlands) supplemented with 10% FBS and 100 U/mL penicillin and 100 μg/mL streptomycin (Life Technologies). RMA-S cells were cultured at 26 °C for 48 h to induce expression of MHC class I molecules. Cells were then incubated with various concentrations of synthetic peptides at 26 °C for 4 h, followed by a 1-h culture at 37 °C. […] The surface expression of MHC class I molecules were analyzed by FACSCalibur cytometer (BD Biosciences, Breda, The Netherlands) and data analyzed with FlowJo software (Treestar, Ashland, OR, USA). Fluorescence index was calculated by dividing the median fluorescence intensity (MFI) value of cells incubated with SLPs by the MFI value of cells incubated with equivalent concentration of DMSO.

The mark [3] stands for this setting: synthetic long peptides, peptide concentration 10 μM, FI = MFI peptide / MFI DMSO.

A value given as a limit tells only on which side of the number the result lay.

As to AETTVRLRAYMNTPGLPV [NS3_507-524], the “H-2D^b binder class (weak, intermediate, strong) by stabilization of MHC class I on RMA-S cells” value (from here on “H-2D^b binder class”) in experiment [1] (synthetic long peptides) was “strong (>1.5: strong binders (+++))”. The “MHC I Stabilization Assay, fluorescence index class, H-2D^b” value in experiment [1] (setting [3]) is “+++ (>1.5 +++)”.
In the case of ALGINAVAYYRGLDVSVI [NS3_383-400], in experiment [1] (synthetic long peptides), the “H-2D^b binder class” value was “intermediate (0.5–1.5: intermediate binders (++))”. Further, the “MHC I Stabilization Assay, fluorescence index class, H-2D^b” value in experiment [1] (setting [3]) was “++ (0.5–1.5 ++)”.
In the case of ATPPGSVTVSHPNIEEVA [NS3_323-340], the “H-2D^b binder class” value in experiment [1] (synthetic long peptides) was “weak (0.2–0.5: weak binders (+))”. The “MHC I Stabilization Assay, fluorescence index class, H-2D^b” value in experiment [1] (setting [3]) was “+ (Fluorescence index of H-2D^b: 0.2–0.5 +)”.
On to IQMYTNVDQDLVGWPA [NS3_72-87], for which the “H-2D^b binder class” value in experiment [1] (synthetic long peptides) is “weak (0.2–0.5: weak binders (+))”. Further, the “MHC I Stabilization Assay, fluorescence index class, H-2D^b” value in experiment [1] (setting [3]) is “+ (Fluorescence index of H-2D^b: 0.2–0.5 +)”.
As to LSQTKQSGENFPYLVAY [NS3_547-563], the “H-2D^b binder class” value in experiment [1] (synthetic long peptides) is “intermediate (0.5–1.5: intermediate binders (++))”. Moreover, the “MHC I Stabilization Assay, fluorescence index class, H-2D^b” value in experiment [1] (setting [3]) was “++ (0.5–1.5 ++)”.
Take RLGAVQNEVTLTHPITKY [NS3_601-618]: the “H-2D^b binder class” value in experiment [1] (synthetic long peptides) is “weak (0.2–0.5: weak binders (+))”. In addition, the “MHC I Stabilization Assay, fluorescence index class, H-2D^b” value in experiment [1] (setting [3]) is “+ (Fluorescence index of H-2D^b: 0.2–0.5 +)”.
On to SIINFEKL [OVA257-264], for which, in experiment [1] (short synthetic peptides, serially diluted (Figure 2a)), the “MHC I Stabilization Assay, fluorescence index class, H-2D^b” value is given as “++ (0.5–1.5 ++)”. Besides, the “Fluorescence index (FI), stabilization of H-2K^b” value in experiment [2] (short peptides at 100 μM, strong binders) is greater than 8. In experiment [2] (short peptides, up to high peptide concentration (100 μM)), the “plateau of stabilization of H-2K^b molecules” value was “not detectable”. Besides, the “MHC I Stabilization Assay, fluorescence index class, H-2K^b” value in experiment [2] (short synthetic peptides, serially diluted (Figure 2b)) is “+++ (>8 +++)”.
As for VPAAYAAQGYKVLVL [NS3_214-228], the “H-2D^b binder class” value in experiment [1] (synthetic long peptides) is listed as “intermediate (0.5–1.5: intermediate binders (++))”. Further, in experiment [1] (setting [3]), the “MHC I Stabilization Assay, fluorescence index class, H-2D^b” value was “++ (0.5–1.5 ++)”. In experiment [2] (synthetic long peptides, 10 μM (Figure 1b), in words), the “H-2K^b binder class (weak, intermediate, strong) by stabilization of MHC class I on RMA-S cells” value is on record as “weak (0.2–2: weak binders (+))”. Besides, the “MHC I Stabilization Assay, fluorescence index class, H-2K^b” value in experiment [2] (setting [3]) was “+ (Fluorescence index of H-2K^b: 0.2–2 +)”.

Values taken from article PMC4494349, “Epitope Prediction Assays Combined with Validation Assays Strongly Narrows down Putative Cytotoxic T Lymphocyte Epitopes” (Vaccines, 2015).
